Laboratory results: US7195783B2, “Hypericin and hypericum extract: specific T-type calcium channel blocker, and their use as T-type calcium channel targeted therapeutics” (FX Life Sciences International GmbH, priority 1999, dated 2007)
“Also recorded” adds a separate entry of the source.

Legend:
L-type calcium current [1] = experiment: L-type calcium current in vascular smooth muscle cells (VSMC); assay type: cell-based; settings: vascular smooth muscle cells (FIG. 6)
L-type calcium channels = experiment: Whole-cell patch-clamp, L-type calcium current in cultured N1E-115 neuroblastoma cells; assay type: cell-based, Mouse; settings: cultured N1E-115 cells; hypericin 0.1, 1 and 10 uM (FIG. 1)
Protocol: (§1) Mouse neuroblastoma cells (N1E115) were cultured in Dulbecco's modified Eagle's medium (GIBCO) containing 10% fetal bovine serum at 37° C. in a humidified atmosphere of 5% CO2 in air. The medium was changed every 3–4 days. After mechanical agitation, 3×10^4 cells were replanted in 35 mm tissue culture dishes containing 4 ml of bath solution. After cell attachment, the dish was mounted on the stage of an inverted phase-contrast microscope (Nikon) for Ca^2+ channel current recording. These cells expressed predominately T channel currents. In experiments where L channels were specifically sought, the cells were grown and maintained at confluence for 3–4 weeks under the same culture conditions with the addition of 2% (vol/vol) dimethyl sulfoxide. Three to five days before use, the cells were replanted with the same medium. These cells expressed predominately L channel currents. A small number of these cells also expressed T channel currents.
The whole-cell version of the patch-clamp technique was used. […] Since the peak currents measured with 20 mM Ba^2+ as the charge carrier were usually small (about 200 pA), the series resistance compensation was not usually employed. […] For every single-cell recording, stable readings were first obtained for 5 min; the drug was then added to the bath solution. […]

L-type calcium current [2] = experiment: L-type calcium current in ventricular cells from baby rats; assay type: cell-based; settings: ventricular cells from baby rats (FIG. 7)
T-type calcium channel = experiment: Whole-cell patch-clamp, T-type calcium current in N1E-115 cells; assay type: cell-based, Mouse; settings: for effect on T-type calcium current: hypericin 0.1 to 10 uM (FIG. 3)
Protocol: as §1
The whole-cell version of the patch-clamp technique was used. The pipettes had resistance of 2–15 M. Membrane current recordings were made with an Axopatch-1C (Axon Instruments) patch-clamp amplifier. All signals were filtered at 1 kHz and stored in the computer. Since the peak currents measured with 20 mM Ba^2+ as the charge carrier were usually small (about 200 pA), the series resistance compensation was not usually employed. If the capacitive transient overlapped with the onset of the inward current, or if the spatial voltage control was inadequate (i.e., NIE-115 cells with long neural outgrowths), the experimental data were rejected. Unless otherwise specified the current-voltage plots were constructed by using the peak values (corrected for leakage) from the original records for both T and L channel currents. The holding membrane potential was fixed at −80 mV when the T channels were under investigation or at […] when the L channels were studied. […] For every single-cell recording, stable readings were first obtained for 5 min; the drug was then added to the bath solution. […]

hypericin
effect on L-type calcium current (L-type calcium current [1]): did not affect | effect on L-type calcium current activity (L-type calcium channels): slight but not significant increase; also recorded: does not significantly affect | effect on L-type calcium current (L-type calcium current [2]): did not affect | inhibition on T-type calcium current (T-type calcium channel; 0.15 ug/ml of pure hypericin (FIG. 3)): less than 10% | effect on T-type calcium current (T-type calcium channel): inhibited T-type calcium currents in a dose-dependent manner | effect on T-type calcium current (T-type calcium channel; listed as Hypericin): dose-dependent inhibitory effect
